The results in this text go back to patent US8586604B2, “Inhibitors of the microsomal prostaglandin E2 synthase-1” (Boehringer Ingelheim International GmbH, priority 2010, dated 2013).

SMILES strings stand for the structures.

The target in this test is T1, recombinant human mPGES-1 (Homo sapiens, UniProt O14684).
T1 construct: made in house; host or cells: Rosetta E. coli (membrane/microsome fraction)
T1 sequence (O14684 1-152): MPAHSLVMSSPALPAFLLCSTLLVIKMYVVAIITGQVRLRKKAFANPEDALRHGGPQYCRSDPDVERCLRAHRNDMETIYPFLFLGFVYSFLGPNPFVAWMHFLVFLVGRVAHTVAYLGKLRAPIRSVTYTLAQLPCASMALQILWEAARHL
As to the kind of experiment: mPGES-1 enzyme assay (HTRF detection of PGE2). The test is classed as biochemical. Conditions: recombinant human mPGES-1 microsomes, PGH2 2 μM, read-out: mPGES-1 inhibitory effect IC50. The method, then:
Microsomes from Rosetta E. coli bacteria expressing recombinant human mPGES-1 can be derived as described below:
Inoculate 5 ml LB with Ampicilin (50 μg/ml) and Chloramphenicol (34 μg/ml) with bacteria from freeze culture. Incubate 8 h at 37° C. with 200 rpm. Thereafter, inoculate 500-1000 ml LB containing Amp and Chloro with the 5 ml on culture and grow to OD640 of 0.8-1.0.
Chill the culture to +4° C. before induction. Induce the culture with IPTG at a final concentration of 400 μM. Express the protein at room temp 18-23° C. with 200 rpm shaking over night.
The following steps can be performed on the following day: • 1. Spin down the cells in 250 ml centrifuge flasks for 15 min at 7000 rpm (Beckmann Coulte Avanti J-E centrifuge) • 2. Dissolve the pellet from 250 ml culture in 12.5 ml homogenization buffer • 3. (15 mM Tris-HCL pH8, 1 mM EDTA pH8, 0.25 mM Sucrose, 2.5 mM GSH, 1Tablet Protease inhibitor per 50 ml buffer) • 4. Disintegrate the cells by sonication, 5×10 seconds at 48% amplitude of a 750 W sonifier • 5. Add 2.5 ml MgCl2 (100 mM) and DNase 12.5 μl (0.8 mg/ml) and incubate on ice for 30 min • 6. Spin down the bacteria debris and save the supernatant, 7000 rpm for 15 min • 7. Isolate the protein containing membranes in the supernatant by ultracentrifugation 120000×g for 2 hour at 4° C. (Sorvall T880 rotor). • 8. Discard the supernatant and dissolve the pellet in 20 mM Potassium phosphate buffer pH7.4 (KH2PO4 and K2HPO4) buffer by sonication (5×10 s, 30% of a 50 W sonifier) and aliquot the enzyme and store aliquots at −80° C.
Before each experiment is performed an aliquot of the enzyme is thawed and it can then be dissolved in 0.1 M Potassium phosphate buffer pH7.4 (KH2PO4 and K2HPO4) buffer containing 2.5 mM GSH.
The aim of this assay is to determine the affinity of a test compound for the mPGES-1 enzyme.
47 μl of recombinant human mPGES-1 (˜0.5 μg protein/well) containing microsomal suspension in a buffer containing GSH, (2.5 mmol/L L-Glutathione reduced, dissolved in 0.1 mol/L Phosphat Buffer pH 7.4) is dispensed in a 384-well plate and thereafter 1 μl of the test compound(s) is/are added and incubated for 25 minutes at room temperature. The enzyme reaction is started by the addition of 2 ul PGH2 (final conc. 2 μM) dissolved in water-free Diglyme. After 60 seconds the reaction is terminated by addition of a stop solution containing FeCl2 (10 μL 0.074 mol/l FeCl2). The samples are diluted between 1:25 in PBS (Phosphate Buffered Saline). 10 μl of the diluted samples are transferred to 384-well low volume plate. In order to quantify the amount of PGE2 that has been formed, a homogenous time resolved fluorescent (HTRF) detecting of PGE2 has been performed using a commercially available kit from Cisbio according to the manufactures recommendation. This HTRF-based assay has been described in detail (see: Goedken et al., J Biomol Screen, 2008, 13(7), 619-625). Briefly, the diluted samples are mixed with 5 μl PGE2-d2 conjungate and 5 μl anti-PGE2 cryptate conjungate. After an incubation period of the plates over night, the fluorescence is measured by the use of an appropriate microplate reader.
The fluorescence of Europium cryptate (maxex=307 nm, maxem=620 nm) and d2-PGE2 (maxex=620 nm, maxem=665 nm) are measured.
The extent of the specific HTRF is measured as a ratio of the emission intensity at 665 nm vs. that at 620 nm at an excitation pulse of 320 nm. The quantification plate contains also wells with different concentrations of PGE2 as calibration curve for the calculation of the PGE2 concentrations from the HTRF ratio values.
From all mPGES enzyme assay the background is subtracted and the IC50 is calculated over a nonlinear regression with conventional software.
On to `Cn1c(Nc2cc(CNC(=O)C(C)(C)C)ccc2Cl)nc2cc(C(=O)Nc3ccc(Br)cc3)c(OCC(F)F)nc21` [Example 1, N-{4-Chloro-3-[6-(4-bromo-phenylcarbamoyl)-5-(2,2-difluoro-ethoxy)-3-methyl-3H-imidazo[4,5-b]pyridin-2-ylamino]benzyl}-2,2-dimethyl-propionamide], for which the IC50 was determined as 9 nM.
The result for `Cn1c(Nc2cc(CNC(=O)C(C)(C)C)ccc2Cl)nc2cc(C(=O)N[C@H]3CC[C@H](C(F)(F)F)CC3)c(OCC(F)F)nc21` [Example 2, N-{4-Chloro-3-[6-(trans-4-trifluoromethyl-cyclohexylcarbamoyl)-5-(2,2-difluoro-ethoxy)-3-methyl-3H-imidazo[4,5-b]pyridin-2-ylamino]benzyl}-2,2-dimethyl-propionamide] reads 3 nM; that for `COCCOc1nc2nc(Nc3cc(CNC(=O)C4(C(F)(F)F)CC4)ccc3Cl)[nH]c2cc1C(=O)N[C@H]1CC[C@H](C(F)(F)F)CC1` [Example 3], 21 nM; that for `COCCOc1nc2c(cc1C(=O)N[C@H]1CC[C@H](C(F)(F)F)CC1)nc(Nc1cc(CNC(=O)C3(C(F)(F)F)CC3)ccc1Cl)n2C` [Example 4], 8 nM.
The result for `O=C(N[C@H]1CC[C@H](C(F)(F)F)CC1)c1cc2nc(Nc3cc(CNC(=O)C4(C(F)(F)F)CC4)ccc3Cl)[nH]c2nc1OCC(F)F` [Example 5] reads 4 nM.
The result for `Cn1c(Nc2cc(CNC(=O)C3(C(F)(F)F)CC3)ccc2Cl)nc2cc(C(=O)N[C@H]3CC[C@H](C(F)(F)F)CC3)c(OCCF)nc21` [Example 6] reads 4 nM; that for `O=C(N[C@H]1CC[C@H](C(F)(F)F)CC1)c1cc2[nH]c(Nc3cc(CNC(=O)C4(C(F)(F)F)CC4)ccc3Cl)nc2nc1OCCF` [Example 7], 8 nM.
Consider `CC(C)(C)C(=O)NCc1ccc(Cl)c(Nc2nc3cc(C(=O)N[C@H]4CC[C@H](C(F)(F)F)CC4)c(OCC(F)F)nc3[nH]2)c1Cl` [Example 8, N-{2,4-Dichloro-3-[6-(trans-4-trifluoromethyl-cyclohexylcarbamoyl)-5-(2,2-difluoro-ethoxy)-1H-imidazo[4,5-b]pyridin-2-ylamino]benzyl}-2,2-dimethyl-propionamide], for which the IC50 was determined as 3 nM.
Turning to `Cn1c(Nc2c(Cl)ccc(CNC(=O)C(C)(C)C)c2Cl)nc2cc(C(=O)N[C@H]3CC[C@H](C(F)(F)F)CC3)c(OCC(F)F)nc21` [Example 9, N-{2,4-Dichloro-3-[6-(trans-4-trifluoromethyl-cyclohexylcarbamoyl)-5-(2,2-difluoro-ethoxy)-3-methyl-3H-imidazo[4,5-b]pyridin-2-ylamino]benzyl}-2,2-dimethyl-propionamide], the IC50 was determined as 6 nM.
For `Cn1c(Nc2c(F)ccc(CNC(=O)C(C)(C)C)c2F)nc2cc(C(=O)N[C@H]3CC[C@H](C(F)(F)F)CC3)c(OCC(F)F)nc21` [Example 10, N-{2,4-Difluoro-3-[6-(trans-4-trifluoromethyl-cylohexylcarbamoyl)-5-(2,2-difluoro-ethoxy)-3-methyl-3H-imidazo[4,5-b]pyridin-2-ylamino]benzyl}-2,2-dimethyl-propionamide] the value was 5 nM; for `CC(C)(C)C(=O)NCc1ccc(F)c(Nc2nc3cc(C(=O)N[C@H]4CC[C@H](C(F)(F)F)CC4)c(OCC(F)F)nc3[nH]2)c1F` [Example 11], 4 nM.
The result for `O=C(N[C@H]1CC[C@H](C(F)(F)F)CC1)c1cc2nc(Nc3c(Cl)ccc(CNC(=O)C4(C(F)(F)F)CC4)c3Cl)[nH]c2nc1OCCOC(F)F` [Example 12] reads 1 nM.
As for `CC(C)(C)C(=O)NCc1ccc(Cl)c(Nc2nc3cc(C(=O)NCC(F)F)c(OCC(F)F)nc3n2CC(F)F)c1Cl` [Example 14], the IC50 turned out to be 1 nM.
The result for `CC(C)(C)C(=O)NCc1ccc(Cl)c(Nc2nc3cc(C(=O)N[C@H]4CC[C@H](C(F)(F)F)CC4)c(OCC(F)F)nc3n2CC(F)F)c1Cl` [Example 15] reads 4 nM; that for `CC(C)(C)C(=O)NCc1ccc(Cl)c(Nc2nc3cc(C(=O)N[C@H]4CC[C@H](C(F)(F)F)CC4)c(OCC(F)F)nc3[nH]2)c1F` [Example 156, N-{2-Fluoro-4-chloro-3-[6-(trans-4-trifluoromethyl-cyclohexylcarbamoyl)-5-(2,2-difluoro-ethoxy)-1H-imidazo[4,5-b]pyridin-2-ylamino]benzyl}-2,2-dimethyl-propionamide], 1 nM; that for `CC(C)(C)C(=O)NCc1ccc(Cl)c(Nc2nc3cc(C(=O)Nc4ccc(F)c(Cl)c4)c(OCC(F)F)nc3[nH]2)c1Cl` [Example 157], 2 nM.
